Our source for the IC50, EC50 and AC50 values is ChEMBL document CHEMBL1201862, “PubChem BioAssay data set” (2004).

The target in data set [1] is T1, Voltage-gated N-type calcium channel alpha-1B subunit/Amyloid beta A4 precursor protein-binding family A member 1 (Homo sapiens, UniProt Q00975+Q02410). The format is protein assay.
Data set [2] addresses T1, Voltage-gated N-type calcium channel alpha-1B subunit/Amyloid beta A4 precursor protein-binding family A member 1. The format is protein assay. The source holds these as a separate data set.
Data set [3] addresses Epstein-Barr nuclear antigen 1 (Epstein-Barr virus (strain B95-8) (HHV-4) (Human herpesvirus 4), UniProt P03211). The data set can be described thus: EBNA-1 inhibitors, dose response, biochemical, fluorescence polarization, 1536-well (AID 2381).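 Further: fluorescence polarization of a Cy5 DNA probe bound by EBNA-1 protein.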 More on the design: species or system human gammaherpesvirus 4. In general terms: Polarisation of emitted light reports the rotation of a fluorescent probe.

The target in data set [4] is Lytic switch protein BZLF1 (Epstein-Barr virus (strain B95-8) (HHV-4) (Human herpesvirus 4), UniProt P03206). The data set can be described thus: EBV ZTA inhibitors, dose response, counter-screen for EBNA-1 inhibitor project, biochemical, fluorescence polarization, Epstein-Barr virus, 1536-well (AID 2377).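 Further: fluorescence polarization of Cy5-labelled ZRE DNA probe bound by purified Zta.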 Further details: species or system human gammaherpesvirus 4.
Chain of Lytic switch protein BZLF1 (P03206 whole entry): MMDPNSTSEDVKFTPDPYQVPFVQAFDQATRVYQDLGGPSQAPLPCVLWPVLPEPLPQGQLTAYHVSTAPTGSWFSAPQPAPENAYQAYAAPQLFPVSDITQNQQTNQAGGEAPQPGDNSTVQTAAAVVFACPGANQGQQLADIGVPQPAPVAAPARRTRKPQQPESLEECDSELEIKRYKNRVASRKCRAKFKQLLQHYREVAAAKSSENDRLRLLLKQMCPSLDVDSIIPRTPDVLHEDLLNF
For data set [5], the target named is T2, Low molecular weight phosphotyrosine protein phosphatase (Homo sapiens, UniProt P24666).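 Further: Dose-response confirmation assay measuring inhibition of LMPTP enzyme activity by fluorescence intensity read-out.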
T2 sequence (P24666 whole entry): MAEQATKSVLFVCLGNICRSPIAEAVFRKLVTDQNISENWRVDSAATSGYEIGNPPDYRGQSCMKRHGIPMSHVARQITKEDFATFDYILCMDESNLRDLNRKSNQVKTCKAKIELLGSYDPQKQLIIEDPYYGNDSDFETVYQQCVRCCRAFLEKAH
The format is functional. As to conditions: read-out: IC50_Mean.

Data set [6] concerns the target T3, SUMO-activating enzyme (Homo sapiens, UniProt Q9UBT2). The data set can be described thus: inhibitors of in vitro SUMOylation cascade, primary screen, biochemical, HTRF, uHTS (AID 2006). The format is protein-complex assay. (Time-resolved FRET reads energy transfer from a long-lived donor to a nearby acceptor.)
Data set [7] has as its target T3, SUMO-activating enzyme. The data set can be described thus: SUMOylation inhibitor hit validation, confirmation, SUMOylation inhibitor project, biochemical, AlphaScreen (AID 2018). Type of data set: functional.
In data set [8] the target is DNA (cytosine-5)-methyltransferase 1 (Homo sapiens, UniProt P26358). The data set can be described thus: DNMT1 methyltransferase inhibitors, confirmation, biochemical, fluorescent molecular beacon (AID 602386). The format is functional.
A short description of data set [9]: insulin promoter down-regulators in MIN6 cells, imaging, high-content screening, mouse beta cells (AID 1628). Type of data set: functional.
The nature of data set [10]: cytotoxicity in MIN6 insulinoma cells, dose response, cytotoxicity control, cell-based, mouse insulinoma (AID 2122).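 Further: confirmatory high-throughput counterscreen run to flag cytotoxic compounds; mouse MIN-6 beta cells carrying an insulin promoter eGFP reporter.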 Type of data set: functional.
Data set [11] concerns the target T4, Intestinal-type alkaline phosphatase (Homo sapiens, UniProt P09923). Briefly: human intestinal alkaline phosphatase activators, dose response, biochemical, luminescence, uHTS hits (AID 463120). The format is functional.
For data set [12], the target named is Intestinal-type alkaline phosphatase (Mus musculus, UniProt P24822). Briefly: PubChem AID 488875. The format is functional.
Data set [13] deals with T5, Alkaline phosphatase, tissue-nonspecific isozyme (Homo sapiens, UniProt P05186).
T5 sequence (P05186 whole entry): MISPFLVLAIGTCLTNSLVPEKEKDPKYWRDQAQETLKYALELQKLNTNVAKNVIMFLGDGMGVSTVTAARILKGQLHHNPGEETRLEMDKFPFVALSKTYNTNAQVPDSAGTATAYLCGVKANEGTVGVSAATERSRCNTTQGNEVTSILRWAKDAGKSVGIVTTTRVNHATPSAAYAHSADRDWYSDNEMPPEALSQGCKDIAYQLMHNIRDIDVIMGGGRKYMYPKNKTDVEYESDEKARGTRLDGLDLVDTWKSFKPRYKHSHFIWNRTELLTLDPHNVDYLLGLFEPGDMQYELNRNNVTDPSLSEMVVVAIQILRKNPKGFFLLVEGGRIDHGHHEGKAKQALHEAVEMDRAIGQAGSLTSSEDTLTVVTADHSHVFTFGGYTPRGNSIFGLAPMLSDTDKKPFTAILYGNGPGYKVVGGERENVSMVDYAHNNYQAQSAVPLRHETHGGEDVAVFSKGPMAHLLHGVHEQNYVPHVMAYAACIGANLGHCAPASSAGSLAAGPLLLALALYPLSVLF
The data set can be described thus: TNAP enzyme activators, dose response, selectivity assay for human IAP activator project, biochemical, TNAP isozyme, human IAP uHTS hits (AID 488886).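 Further: potency of compounds raising TNAP activity as a selectivity check on IAP activators.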 Type of data set: functional.

Data set [14] concerns the target T4, Intestinal-type alkaline phosphatase. Briefly: human IAP activators, dose response, biochemical, luminescent, uHTS hits, set 2 (AID 488817).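 Further: potency of activators that raise enzyme activity.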 The format is functional.
Data set [15] in a line: inhibitors of cytokine-induced nitrite release, dose response, cell-based, Griess absorbance, INS-1E, dry powder, set 3 (AID 488870). The conditions noted are these: Rattus norvegicus. The format is functional. Background: The Griess reaction detects nitrite, a stable product of nitric oxide.
In another data set the target is Cytochrome P450 2D6 (Homo sapiens, UniProt P10635).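 Further: CYP2D6 member of a cytochrome P450 panel assay.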

The source made the active and inactive calls.

T4 sequence (P09923 whole entry): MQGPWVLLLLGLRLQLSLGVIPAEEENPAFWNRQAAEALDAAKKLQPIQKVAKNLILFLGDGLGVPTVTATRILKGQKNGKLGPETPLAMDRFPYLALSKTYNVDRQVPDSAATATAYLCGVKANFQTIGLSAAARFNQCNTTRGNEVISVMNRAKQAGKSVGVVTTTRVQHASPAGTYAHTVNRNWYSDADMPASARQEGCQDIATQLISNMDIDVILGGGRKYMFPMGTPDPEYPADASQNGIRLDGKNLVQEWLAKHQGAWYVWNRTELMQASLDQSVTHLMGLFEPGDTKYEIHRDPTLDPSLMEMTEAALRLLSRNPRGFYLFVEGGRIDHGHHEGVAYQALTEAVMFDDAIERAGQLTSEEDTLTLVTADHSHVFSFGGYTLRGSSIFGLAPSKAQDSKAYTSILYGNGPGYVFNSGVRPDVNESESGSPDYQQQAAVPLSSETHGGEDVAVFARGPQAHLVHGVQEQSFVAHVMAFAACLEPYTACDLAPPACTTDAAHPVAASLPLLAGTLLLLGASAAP
T1 sequence (Q00975 whole entry): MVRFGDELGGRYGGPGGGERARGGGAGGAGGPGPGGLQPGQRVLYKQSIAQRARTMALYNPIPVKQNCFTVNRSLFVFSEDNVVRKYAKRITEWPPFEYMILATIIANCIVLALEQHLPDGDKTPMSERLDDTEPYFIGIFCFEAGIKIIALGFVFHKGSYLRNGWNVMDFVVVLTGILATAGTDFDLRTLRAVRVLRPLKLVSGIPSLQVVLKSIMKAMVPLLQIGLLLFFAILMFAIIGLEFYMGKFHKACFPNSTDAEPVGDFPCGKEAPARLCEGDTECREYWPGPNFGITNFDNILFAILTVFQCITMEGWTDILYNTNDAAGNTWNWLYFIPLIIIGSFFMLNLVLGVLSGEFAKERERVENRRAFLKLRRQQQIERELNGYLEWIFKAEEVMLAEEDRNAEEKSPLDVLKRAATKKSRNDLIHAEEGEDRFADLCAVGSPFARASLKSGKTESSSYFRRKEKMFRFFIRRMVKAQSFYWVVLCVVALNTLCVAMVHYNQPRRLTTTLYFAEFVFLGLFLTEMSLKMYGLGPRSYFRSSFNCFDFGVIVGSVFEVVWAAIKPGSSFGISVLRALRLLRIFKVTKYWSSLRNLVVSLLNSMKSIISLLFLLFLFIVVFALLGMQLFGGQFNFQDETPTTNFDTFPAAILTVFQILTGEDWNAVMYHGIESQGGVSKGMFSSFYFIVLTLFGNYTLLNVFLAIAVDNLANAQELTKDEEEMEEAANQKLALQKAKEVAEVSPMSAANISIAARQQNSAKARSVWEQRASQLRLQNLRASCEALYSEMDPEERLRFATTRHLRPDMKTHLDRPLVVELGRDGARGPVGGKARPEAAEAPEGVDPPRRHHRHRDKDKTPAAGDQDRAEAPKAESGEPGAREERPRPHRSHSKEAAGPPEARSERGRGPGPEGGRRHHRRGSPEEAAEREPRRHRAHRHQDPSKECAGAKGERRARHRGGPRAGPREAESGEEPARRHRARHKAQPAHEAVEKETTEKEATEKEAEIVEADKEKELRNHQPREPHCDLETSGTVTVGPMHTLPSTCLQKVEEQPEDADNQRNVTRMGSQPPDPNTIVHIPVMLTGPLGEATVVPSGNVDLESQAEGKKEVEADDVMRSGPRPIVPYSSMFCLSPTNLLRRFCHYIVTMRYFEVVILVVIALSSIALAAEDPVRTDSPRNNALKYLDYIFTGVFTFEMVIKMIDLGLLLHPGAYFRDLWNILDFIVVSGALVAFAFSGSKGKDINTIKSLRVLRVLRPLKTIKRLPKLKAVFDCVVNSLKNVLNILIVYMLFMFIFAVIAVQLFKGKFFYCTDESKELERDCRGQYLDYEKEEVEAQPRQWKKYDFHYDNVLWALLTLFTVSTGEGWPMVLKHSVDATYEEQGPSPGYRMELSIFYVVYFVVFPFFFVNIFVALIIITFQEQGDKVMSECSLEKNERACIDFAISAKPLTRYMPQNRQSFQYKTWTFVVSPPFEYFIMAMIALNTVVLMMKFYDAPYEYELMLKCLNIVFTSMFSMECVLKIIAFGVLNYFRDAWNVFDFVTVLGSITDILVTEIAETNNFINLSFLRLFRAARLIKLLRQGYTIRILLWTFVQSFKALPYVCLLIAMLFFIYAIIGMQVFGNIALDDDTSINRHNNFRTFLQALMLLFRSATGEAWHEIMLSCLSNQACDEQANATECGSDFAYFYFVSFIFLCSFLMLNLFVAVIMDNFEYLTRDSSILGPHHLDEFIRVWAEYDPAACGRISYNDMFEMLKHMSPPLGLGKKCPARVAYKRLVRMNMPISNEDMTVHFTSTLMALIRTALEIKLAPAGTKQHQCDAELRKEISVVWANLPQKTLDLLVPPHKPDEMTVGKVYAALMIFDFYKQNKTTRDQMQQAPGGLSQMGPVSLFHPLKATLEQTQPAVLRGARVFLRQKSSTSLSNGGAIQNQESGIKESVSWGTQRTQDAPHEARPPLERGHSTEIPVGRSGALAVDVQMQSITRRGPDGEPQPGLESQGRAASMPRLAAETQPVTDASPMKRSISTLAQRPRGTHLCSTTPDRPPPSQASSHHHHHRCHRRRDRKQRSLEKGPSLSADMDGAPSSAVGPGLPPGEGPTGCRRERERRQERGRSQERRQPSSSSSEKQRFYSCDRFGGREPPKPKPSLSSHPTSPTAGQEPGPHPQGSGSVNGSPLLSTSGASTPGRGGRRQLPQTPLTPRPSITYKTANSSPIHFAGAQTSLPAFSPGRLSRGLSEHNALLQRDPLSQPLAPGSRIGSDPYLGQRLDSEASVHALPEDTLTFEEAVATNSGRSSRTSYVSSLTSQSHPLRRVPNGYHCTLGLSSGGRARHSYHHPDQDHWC
T1 sequence (Q02410 whole entry): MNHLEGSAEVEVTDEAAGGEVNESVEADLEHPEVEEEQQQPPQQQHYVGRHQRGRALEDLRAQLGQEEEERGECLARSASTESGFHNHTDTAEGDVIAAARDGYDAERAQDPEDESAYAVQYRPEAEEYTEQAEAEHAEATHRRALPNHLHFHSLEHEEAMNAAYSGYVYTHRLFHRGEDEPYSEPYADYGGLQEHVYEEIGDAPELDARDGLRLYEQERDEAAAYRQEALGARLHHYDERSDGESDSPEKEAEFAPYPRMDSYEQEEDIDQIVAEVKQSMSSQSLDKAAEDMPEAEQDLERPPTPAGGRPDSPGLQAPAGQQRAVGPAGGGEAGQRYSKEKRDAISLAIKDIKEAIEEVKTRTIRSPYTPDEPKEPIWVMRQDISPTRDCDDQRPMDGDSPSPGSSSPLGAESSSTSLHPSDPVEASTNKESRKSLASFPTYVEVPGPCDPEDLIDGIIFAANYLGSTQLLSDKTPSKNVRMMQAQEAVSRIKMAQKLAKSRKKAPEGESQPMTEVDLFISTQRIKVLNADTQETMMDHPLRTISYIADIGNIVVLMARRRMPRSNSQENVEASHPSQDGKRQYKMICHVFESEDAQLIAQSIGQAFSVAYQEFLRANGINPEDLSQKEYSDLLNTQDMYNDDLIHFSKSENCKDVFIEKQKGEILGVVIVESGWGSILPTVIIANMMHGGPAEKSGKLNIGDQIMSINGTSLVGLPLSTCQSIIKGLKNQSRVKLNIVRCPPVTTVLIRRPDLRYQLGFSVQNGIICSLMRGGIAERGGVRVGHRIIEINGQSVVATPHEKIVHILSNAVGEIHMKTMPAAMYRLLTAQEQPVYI
T3 sequence (Q9UBE0 whole entry): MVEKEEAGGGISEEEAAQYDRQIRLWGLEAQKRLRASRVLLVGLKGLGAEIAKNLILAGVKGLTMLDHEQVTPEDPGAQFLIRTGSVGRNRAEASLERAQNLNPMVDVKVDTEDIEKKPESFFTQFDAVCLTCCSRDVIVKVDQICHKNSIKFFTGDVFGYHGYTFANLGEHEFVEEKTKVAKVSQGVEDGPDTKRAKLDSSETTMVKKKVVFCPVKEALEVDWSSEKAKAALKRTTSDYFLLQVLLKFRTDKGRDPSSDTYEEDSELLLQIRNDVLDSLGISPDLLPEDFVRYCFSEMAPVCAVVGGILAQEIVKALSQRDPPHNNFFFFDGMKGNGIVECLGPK
T3 sequence (Q9UBT2 whole entry): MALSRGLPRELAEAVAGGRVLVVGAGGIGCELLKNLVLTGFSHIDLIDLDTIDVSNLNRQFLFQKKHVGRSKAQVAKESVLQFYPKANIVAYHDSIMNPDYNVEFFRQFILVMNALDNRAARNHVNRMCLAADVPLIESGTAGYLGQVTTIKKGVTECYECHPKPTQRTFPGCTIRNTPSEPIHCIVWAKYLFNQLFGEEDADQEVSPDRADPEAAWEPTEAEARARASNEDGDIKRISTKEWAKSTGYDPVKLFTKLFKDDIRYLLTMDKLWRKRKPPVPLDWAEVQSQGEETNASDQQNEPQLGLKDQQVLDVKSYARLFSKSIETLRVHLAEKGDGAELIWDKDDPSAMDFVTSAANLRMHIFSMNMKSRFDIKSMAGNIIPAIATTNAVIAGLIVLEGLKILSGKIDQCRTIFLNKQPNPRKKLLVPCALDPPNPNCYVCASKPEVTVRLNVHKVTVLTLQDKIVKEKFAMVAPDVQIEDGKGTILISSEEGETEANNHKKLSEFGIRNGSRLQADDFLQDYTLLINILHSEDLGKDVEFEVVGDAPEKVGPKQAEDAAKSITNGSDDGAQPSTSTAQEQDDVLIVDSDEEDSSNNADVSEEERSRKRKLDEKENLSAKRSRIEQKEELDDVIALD

On to `O=C(COc1ccc(/C=N/NC(=O)c2ccc(O)cc2)cc1)Nc1ccc([N+](=O)[O-])cc1`, for which the IC50 was > 50 µM (inactive) in data set [1]; 9.71 µM (active) in data set [2]; 14.5 µM (not active) in [3]; > 111 µM (not active) in data set [4]; 9.58 µM (active) in data set [5]; 8.49 µM (active) at SUMO-activating enzyme [6]. Besides, the results for the IC50 (on SUMO-activating enzyme [7]; in data set [8]) were 9.81 µM (active) and 8.43 µM (active), respectively.
On to `CN1CCN(Cc2ccc(OCc3ccccc3)cc2)CC1`, for which the IC50 in data set [9] was 3.08 µM (active); in data set [10] it was 1.8 µM (active).
In general, EC50 refers to the concentration that produces a half-maximal response. In the case of `COc1cc(NC(=O)NCC2CCN(Cc3ccccc3C)CC2)cc(OC)c1OC`, the EC50 is 70 µM (active) in data set [11], 52.6 µM (active) in [12], 73.9 µM (active) in data set [13] and 64.7 µM (active) in data set [14].
A word on the AC50: it is the midpoint of the concentration-response curve, whichever way the signal moves. Turning to `C[C@@H]1CN([C@@H](C)CO)C(=O)c2cccc(NC(=O)Nc3cccc4ccccc34)c2O[C@H]1CN(C)C(=O)Nc1ccc2c(c1)OCO2`, the half-maximal activity concentration (AC50) in [15] was 51.5 µM (active).
Turning to `COc1ccccc1NC(=O)c1nc[nH]c1C(=O)Nc1ccccc1OC`, the concentration at half-maximal activity (AC50) entry on Cytochrome P450 2D6 is listed as “inconclusive”.
